# According to patent publication US5643912A, “Pyrazinoic acid esters as anti-mycobacterium avium agents” (The Research Foundation of State University of NY, priority 1996, dated 1997):
# Key:
# M. tuberculosis 102 = assay: Broth dilution MIC vs M. tuberculosis 102; format: cell-based; settings: Mycobacterium tuberculosis, 102, pH 5.8, M. tuberculosis 102, 7H10 broth, read-out: MIC
# M. avium 101 = assay: Broth dilution MIC vs M. avium 101; format: cell-based; settings: Mycobacterium avium, 7H10 broth, pH 5.8
# M. kansasii SWK = assay: Broth dilution MIC vs M. kansasii SWK; format: cell-based; settings: Mycobacterium kansasii, 7H10 broth, pH 5.8
# M. tuberculosis BUR = assay: Broth dilution MIC vs M. tuberculosis BUR; format: cell-based; settings: Mycobacterium tuberculosis, M. tuberculosis BUR (footnote b), 7H10 broth, pH 5.8
# [1] = tested on: Myobacterium tuberculosis H37RV; settings: cited from earlier work
# [2] = tested on: M. bovis or other mycobacteria; settings: in words; cited from earlier work
# [3] = tested on: Mycobacterium (M.) tuberculosis; settings: in words; cited from earlier work
# M. avium = settings: Heifets et al. 1986; cited from earlier work
# [4] = in words; cited from earlier work
# [5] = tested on: a number of bacteria including M. tuberculosis; settings: Suzuki et al. 1958; cited from earlier work
Molecule,MIC (M. tuberculosis 102) [µg/mL],MIC (M. avium 101) [µg/mL],MIC (M. kansasii SWK) [µg/mL],further results
C=CCOC(=O)c1cnc(Cl)cn1 [Example 33],1,64,< 1,–
CC(C)COC(=O)c1cnc(Cl)cn1 [Example 34],2,64,< 1,–
CC(C)(C)OC(=O)c1cnc(Cl)cn1 [Example 35],2,128,< 1,–
CCCCCCCCCC(C)OC(=O)c1cnc(Cl)cn1 (centres unmarked) [Example 36],0.25,16,0.25,–
CCCCCCCC(C)(CCCC)OC(=O)c1cnc(Cl)cn1 (centres unmarked) [Example 37],8,> 64,16,–
CCCCCCCCC(C)(CCCC)OC(=O)c1cnc(Cl)cn1 (centres unmarked) [Example 38],16,> 64,> 16,–
COC(=O)c1cnc(I)cn1 [Example 39],16,256,8,–
CCCCCC(C)(CCCC)OC(=O)c1cnc(Cl)cn1 (centres unmarked) [Example 40],4,> 256,16,–
O=C(OCC(F)(F)F)c1cnccn1 [Example 41],–,–,100,MIC (M. tuberculosis BUR): 25 µg/mL
C=CCOC(=O)c1cnccn1 [Example 42],–,–,3,MIC (M. tuberculosis BUR): 6.3 µg/mL
CCCOC(=O)c1cnccn1 [Example 43],–,–,3,MIC (M. tuberculosis BUR): 3 µg/mL
CCCCCC(C)(CCC)OC(=O)c1cnc(Cl)cn1 (centres unmarked) [Example 44],4,> 256,4,–
CCCCCC(C)(CCCCC)OC(=O)c1cnc(Cl)cn1 [Example 45],8,> 64,8,–
CCCCCCC(C)(CCCCC)OC(=O)c1cnc(Cl)cn1 (centres unmarked) [Example 46],2,> 64,8,–
CCCCCCCC(C)(CCCCC)OC(=O)c1cnc(Cl)cn1 (centres unmarked) [Example 47],2,> 64,–,–
CCCCCCCCCC(C)(CCCCCCC)OC(=O)c1cnc(Cl)cn1 (centres unmarked) [Example 48],0.5,> 64,–,–
CC(C)COC(=O)c1cnccn1 [Example 49],2,256,16,–

Molecule,MIC (M. tuberculosis 102) [µg/mL],MIC (M. avium 101) [µg/mL],MIC (M. kansasii SWK) [µg/mL],further results
CCC(C)OC(=O)c1cnccn1 (centres unmarked) [Example 50],8,256,16,–
Cc1cc(C(C)(C)C)c(OC(=O)c2cnccn2)c(C(C)(C)C)c1 [Example 51],128,> 256,> 16,–
O=C(OCc1ccccc1)c1cnccn1 [Example 52],1,64,1,–
C/C=C/COC(=O)c1cnccn1 [Example 54],2,–,–,–
Cc1cc(C)c(OC(=O)c2cnccn2)c(C)c1 [Example 55],1,64,2,–
CC1CCC(C(C)C)C(OC(=O)c2cnccn2)C1 (centres unmarked) [Example 56],2,–,–,–
O=C(OC(C(F)(F)F)C(F)(F)F)c1cnccn1 [Example 60],–,–,–,MIC (M. tuberculosis BUR): 100 µg/mL
O=C(OCCCl)c1cnccn1 [Example 62],–,–,25,MIC (M. tuberculosis BUR): 6.3 µg/mL
O=C(Oc1ccc([N+](=O)[O-])cc1)c1cnccn1 [Example 63],–,–,25,MIC (M. tuberculosis BUR): 12.5 µg/mL
Cc1ccc(OC(=O)c2cnccn2)cc1 [Example 64],100,–,100,–
CC(C)(C)c1ccc(OC(=O)c2cnccn2)cc1 [Example 65],25,–,25,–
O=C(Oc1c(F)c(F)c(F)c(F)c1F)c1cnccn1 [Example 66],–,–,25,–
O=C(Oc1ccc(-c2ccccc2)cc1)c1cnccn1 [Example 67],–,–,25,–
"CN(C)CCOC(=O)c1cnccn1 [N,N-dimethyl-2-aminoethyl pyrazinoate]",–,–,–,in vitro activity against M. tuberculosis H37RV [1]: active
NC(=O)c1cnccn1 [pyrazinamide],–,–,–,activity against M. bovis or other mycobacteria [2]: not active; activity against M. tuberculosis [3]: only active against Mycobacterium (M.) tuberculosis; activity against M. avium (M. avium): inactive; hepatotoxicity [4]: hepatotoxicity
pyrazinoate ester of chloramphenicol,–,–,–,activity against bacteria including M. tuberculosis [5]: inactive
